The results in this text go back to PMC13022283 (Scientific Reports, 2026).

One may read the viability as a read-out of living cells in per cent, often relative to untreated cells. A high value points to better survival. As usually defined, the inhibition is the percentage by which the read-out fell short of the control. The IC50 is the midpoint of a concentration-inhibition curve. Low readings indicate higher potency, high ones lower potency.

One series in a line: MTT assay. Particulars: human, MCF-7 breast cancer cells, MCF-7, 100 μM; for cytotoxicity at 24 h, 100 µM: % Cytotoxicity ± SD; for viability at 24 h, 100 µM: % Viability. The class given is cell-based, human. (Formazan colour is commonly taken as a measure of viable cells.)
In another series the target is T1, h-NPP1 (Homo sapiens, UniProt P22413).
T1 sequence (P22413 1-925): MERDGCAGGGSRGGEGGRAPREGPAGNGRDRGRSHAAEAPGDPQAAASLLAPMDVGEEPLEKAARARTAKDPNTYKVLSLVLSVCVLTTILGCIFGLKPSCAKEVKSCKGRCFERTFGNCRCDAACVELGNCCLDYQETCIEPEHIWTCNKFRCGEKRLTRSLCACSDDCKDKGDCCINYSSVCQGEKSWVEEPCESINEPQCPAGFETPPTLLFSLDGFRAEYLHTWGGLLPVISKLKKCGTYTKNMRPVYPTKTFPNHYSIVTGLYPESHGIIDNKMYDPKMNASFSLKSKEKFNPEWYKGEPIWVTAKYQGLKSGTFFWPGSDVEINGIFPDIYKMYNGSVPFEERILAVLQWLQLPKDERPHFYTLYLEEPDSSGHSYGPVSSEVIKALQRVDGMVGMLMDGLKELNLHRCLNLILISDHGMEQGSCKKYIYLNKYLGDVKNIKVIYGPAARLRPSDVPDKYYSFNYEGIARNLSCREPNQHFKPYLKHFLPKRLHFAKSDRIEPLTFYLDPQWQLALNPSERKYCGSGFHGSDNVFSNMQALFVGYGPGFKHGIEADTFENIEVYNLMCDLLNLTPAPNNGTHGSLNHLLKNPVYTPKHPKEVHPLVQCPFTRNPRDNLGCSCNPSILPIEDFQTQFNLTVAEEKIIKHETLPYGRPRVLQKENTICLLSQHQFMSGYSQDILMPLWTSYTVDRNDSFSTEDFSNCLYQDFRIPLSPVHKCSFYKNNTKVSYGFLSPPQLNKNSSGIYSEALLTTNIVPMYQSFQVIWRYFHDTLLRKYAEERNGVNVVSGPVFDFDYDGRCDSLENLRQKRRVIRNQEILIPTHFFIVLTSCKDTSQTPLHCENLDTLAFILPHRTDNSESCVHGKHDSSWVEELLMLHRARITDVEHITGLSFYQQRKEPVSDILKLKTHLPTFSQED
Description: h-NPP1 activity assay. It is filed as biochemical. To be noted: for inhibition at 100 µM: read-out: % Inhibition h-NPP1.

In the next series the target is T2, h-NTPDase1 (Homo sapiens, UniProt P49961).
T2 sequence (P49961 1-510): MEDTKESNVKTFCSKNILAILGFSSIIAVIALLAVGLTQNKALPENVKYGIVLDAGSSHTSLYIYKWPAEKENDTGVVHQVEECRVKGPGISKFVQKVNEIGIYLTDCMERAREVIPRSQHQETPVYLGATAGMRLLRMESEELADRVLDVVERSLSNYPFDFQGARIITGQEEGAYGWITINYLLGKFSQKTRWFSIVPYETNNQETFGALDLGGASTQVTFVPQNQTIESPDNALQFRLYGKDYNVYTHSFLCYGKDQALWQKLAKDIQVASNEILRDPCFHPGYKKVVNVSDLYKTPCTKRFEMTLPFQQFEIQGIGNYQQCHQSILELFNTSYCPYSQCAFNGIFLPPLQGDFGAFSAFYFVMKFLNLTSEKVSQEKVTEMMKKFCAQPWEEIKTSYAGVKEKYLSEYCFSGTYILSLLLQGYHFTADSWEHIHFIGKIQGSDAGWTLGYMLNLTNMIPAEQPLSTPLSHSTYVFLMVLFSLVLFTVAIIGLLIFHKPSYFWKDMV
The series is described as follows: h-NTPDase activity assay. It is filed as biochemical. Particulars: for inhibition at 100 µM: read-out: % Inhibition h-NTPDase1.

Another series deals with T3, h-NTPDase2 (Homo sapiens, UniProt Q9Y5L3).
T3 sequence (Q9Y5L3 1-495): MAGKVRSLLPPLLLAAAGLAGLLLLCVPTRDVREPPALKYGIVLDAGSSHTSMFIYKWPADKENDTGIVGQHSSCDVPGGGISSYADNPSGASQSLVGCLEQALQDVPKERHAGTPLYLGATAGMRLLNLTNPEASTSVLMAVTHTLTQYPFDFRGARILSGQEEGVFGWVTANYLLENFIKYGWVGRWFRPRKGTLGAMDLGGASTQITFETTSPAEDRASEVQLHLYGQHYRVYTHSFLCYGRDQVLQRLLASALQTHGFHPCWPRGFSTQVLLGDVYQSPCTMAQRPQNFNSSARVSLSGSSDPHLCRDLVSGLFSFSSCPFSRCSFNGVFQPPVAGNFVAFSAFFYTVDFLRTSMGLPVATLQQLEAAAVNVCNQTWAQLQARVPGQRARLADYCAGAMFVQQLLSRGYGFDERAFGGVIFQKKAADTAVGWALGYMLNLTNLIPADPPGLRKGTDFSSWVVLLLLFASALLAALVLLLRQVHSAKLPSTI
Description: h-NTPDase activity assay. It is filed as biochemical. Particulars: for inhibition at 100 µM: read-out: % Inhibition h-NTPDase2.

A further series has as its target T4, h-NTPDase8 (Homo sapiens, UniProt Q5MY95).
T4 sequence (Q5MY95 1-495): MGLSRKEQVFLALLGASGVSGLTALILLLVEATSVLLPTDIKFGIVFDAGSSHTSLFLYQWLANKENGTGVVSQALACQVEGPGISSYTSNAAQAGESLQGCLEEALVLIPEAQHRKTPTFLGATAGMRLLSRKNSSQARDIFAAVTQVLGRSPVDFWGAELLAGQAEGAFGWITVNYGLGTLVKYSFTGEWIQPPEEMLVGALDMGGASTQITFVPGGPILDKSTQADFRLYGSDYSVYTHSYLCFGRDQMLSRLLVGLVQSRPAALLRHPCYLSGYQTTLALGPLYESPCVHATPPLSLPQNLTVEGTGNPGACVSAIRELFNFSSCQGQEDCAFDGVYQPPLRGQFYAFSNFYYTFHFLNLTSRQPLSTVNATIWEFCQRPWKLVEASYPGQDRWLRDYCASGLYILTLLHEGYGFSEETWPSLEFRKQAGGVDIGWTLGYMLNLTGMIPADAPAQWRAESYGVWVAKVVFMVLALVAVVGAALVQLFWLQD
Description: h-NTPDase activity assay. It is filed as biochemical. To be noted: for inhibition at 100 µM: read-out: % Inhibition h-NTPDase8, at 100 µM.

As to `O=C(NCc1ccc(F)cc1)c1ccc2ncccc2c1` [Compound 4b, N-(4-fluorobenzyl)quinoline-6-carboxamide], the cytotoxicity at 24 h, 100 µM in the series “MTT assay” came to 25.1 ± 6.08%. The viability at 24 h, 100 µM in “MTT assay” is 74.9%. Also, the inhibition at 100 µM turned out to be 44.8% at h-NPP1, 68.9% at h-NTPDase1, 26.2% at h-NTPDase2 and 83% on h-NTPDase8. In addition, the 50% inhibitory concentration (IC50) is 3460 ± 490 nM on h-NTPDase1 and 440 ± 80 nM on h-NTPDase8.
Take `Cc1ccc(CNC(=O)c2ccc3ncccc3c2)cc1` [Compound 4c, N-(4-methylbenzyl)quinoline-6-carboxamide]: the cytotoxicity at 24 h, 100 µM in the series “MTT assay” is 42.2 ± 0.81%. Further, the viability at 24 h, 100 µM in “MTT assay” is 57.8%. The inhibition at 100 µM at h-NPP1 was determined as 45.2%; at h-NTPDase1, 57.7%; at h-NTPDase2, 68.4%; on h-NTPDase8 it was 70.9%. The IC50 on h-NTPDase1 stood at 6130 ± 640 nM; on h-NTPDase2, 6390 ± 1070 nM; on h-NTPDase8, 990 ± 130 nM.
The compound `O=C(Nc1c(F)cccc1F)c1ccc2ncccc2c1` [Compound 4d, N-(2,6 difluorophenyl)quinoline-6-carboxamide] displayed a cytotoxicity at 24 h, 100 µM in “MTT assay” of 48 ± 12.7%. Also, the viability at 24 h, 100 µM in the series “MTT assay” came to 52%. Further, the half-inhibitory concentration (IC50) against h-NPP1 turned out to be 730 ± 90 nM; on h-NTPDase2 it was 920 ± 170 nM. Moreover, the inhibition at 100 µM came to 54.5% on h-NPP1, 76.1% at h-NTPDase1, 80.1% on h-NTPDase2 and 33% on h-NTPDase8.
As for `O=C(Nc1ccc(F)cc1F)c1ccc2ncccc2c1` [Compound 4e, N-(2,4 difluorophenyl)quinoline-6-carboxamide], the cytotoxicity at 24 h, 100 µM in “MTT assay” is 14.6 ± 2.48%. The compound also returned a viability at 24 h, 100 µM in the series “MTT assay” of 85.4%. Also, the inhibition at 100 µM on h-NPP1 is 34.6%; on h-NTPDase1 it was 32.6%; at h-NTPDase2, 36.4%; on h-NTPDase8 it was 39.5%.
For the compound `O=C(Nc1ccccn1)c1ccc2ncccc2c1` [Compound 4g, N-(pyridin-2-yl)quinoline-6-carboxamide], the cytotoxicity at 24 h, 100 µM in “MTT assay” is 47.4 ± 1.8%. This compound returned a viability at 24 h, 100 µM in “MTT assay” of 52.6%. Further, the inhibition at 100 µM amounted to 43.7% at h-NPP1, 58.5% at h-NTPDase1, 33.9% at h-NTPDase2 and 20.4% on h-NTPDase8. The compound further registered a 50% inhibitory concentration (IC50) against h-NTPDase1 of 610 ± 90 nM.
As to `O=C(Nc1ccccc1I)c1ccc2ncccc2c1` [Compound 4h, N-(2-iodophenyl)quinoline-6-carboxamide], in “MTT assay”, the cytotoxicity at 24 h, 100 µM was found to be 49.7 ± 2.17%. In “MTT assay”, this compound yielded a viability at 24 h, 100 µM of 50.3%. For the same compound, the inhibition at 100 µM is 33.9% at h-NPP1, 18.4% at h-NTPDase1, 28.3% at h-NTPDase2 and 65.6% on h-NTPDase8. Besides, half-maximal inhibition on h-NTPDase8 (IC50) was put at 3290 ± 360 nM.
As to `O=C(Nc1ccc(I)cc1)c1ccc2ncccc2c1` [Compound 4k, N-(4-Iodophenyl)quinoline-6-carboxamide], the cytotoxicity at 24 h, 100 µM in “MTT assay” came out at 56.9 ± 16.9%. For the same compound, in “MTT assay”, the viability at 24 h, 100 µM lay within 43 to 45%. At h-NPP1, this compound yielded an IC50 of 110 ± 20 nM. In addition, the inhibition at 100 µM at h-NPP1 turned out to be 67.7%; at h-NTPDase1 it was 33.8%; on h-NTPDase2, 18.6%; on h-NTPDase8 it was 27%.
For the compound `Cc1ccc(F)cc1NC(=O)c1ccc2ncccc2c1` [Compound 4l, N-(5-fluoro 2-methylphenyl)quinoline-6-carboxamide], in “MTT assay”, the cytotoxicity at 24 h, 100 µM was 39.5 ± 15.5%. The compound further gave a viability at 24 h, 100 µM in “MTT assay” of 60.5%. In addition, the inhibition at 100 µM was 29.4% on h-NPP1, 32.4% at h-NTPDase1, 41.2% at h-NTPDase2 and 26.1% on h-NTPDase8.
